# Measured values reported in the supplement of paper PMC4862054.
# Columns and labels:
# Conditions in all cases: 72 h
# CAL-51 [1] = test system: CAL-51
# Summary of the method: (§1)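 To measure viability, fluorescence at 560/590 nm was read after 2.5 µl CellTiter-Blue had been added for 2 h at 37 °C. Cells from breast cancer lines had been seeded in 20 µl suspension onto 384-well plates pre-loaded with compound dissolved in 5 µl medium and kept for 72 h. EC50 comes from a fitted percent-inhibition dose-response curve censored at the highest concentration, after per-plate normalisation to vehicle and a positive kill control, Z'-factor checks, and removal of rows with zero drug sensitivity score.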
# CAL-85-1 [2] = test system: CAL-85-1
# Summary of the method: as §1
# DU-4475 [3] = test system: DU-4475
# Summary of the method: as §1
# HDQ-P1 [4] = test system: HDQ-P1
# Summary of the method: as §1
# BT-474 [5] = test system: BT-474
# Summary of the method: as §1
# BT-549 [6] = test system: BT-549
# Summary of the method: as §1
# HCC1143 [7] = test system: HCC1143
# Summary of the method: as §1
# Hs578T = test system: Hs578T
# Summary of the method: as §1
# MDA-MB-436 [8] = test system: MDA-MB-436
# Summary of the method: as §1
# MDA-MB-468 = test system: MDA-MB-468
# Summary of the method: as §1
# MFM-223 [9] = test system: MFM-223
# Summary of the method: as §1
# SK-BR-3 [10] = test system: SK-BR-3
# Summary of the method: as §1
# HDQ-P1 [11] = test system: HDQ-P1; remark: listed apart in the source
# Method: (§2)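 Drug sensitivity and resistance testing (DSRT) of breast cancer cell lines in 384-well plates, 5 concentrations in 10-fold dilutions over a compound-specific 10,000-fold range. After 72 h, cytotoxicity was read by CellTox Green fluorescence and viability by CellTiter-Glo luminescence (multiplexed), normalised to DMSO and benzethonium chloride controls. EC50 is the inflection point of the fitted dose-response curve (bottom asymptote free, so it can be relative for partial curves) and is censored at the highest tested concentration. Rows with DSS 0 (no meaningful response) were excluded.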
# BT-549 [12] = test system: BT-549; remark: listed apart in the source
# Summary of the method: (§3)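 For viability and cell death testing, 384-well plates carried compound at 5 concentrations in 10-fold steps over a compound-specific 10,000-fold range, and breast cancer cell lines were seeded in 20 µl suspension. After 72 h incubation, cell death was read by CellTox Green fluorescence (485/520 nm) before viability was read by CellTiter-Glo luminescence. EC50 was fitted from the dose-response curves and censored at the top concentration. Normalisation on each plate was to 0.1 % DMSO and a positive kill control.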
# CAL-120 = test system: CAL-120
# Summary of the method: as §3
# CAL-148 = test system: CAL-148
# Summary of the method: as §3
# CAL-85-1 [13] = test system: CAL-85-1; remark: listed apart in the source
# Summary of the method: as §3
# DU-4475 [14] = test system: DU-4475; remark: listed apart in the source
# Summary of the method: as §3
# HCC1143 [15] = test system: HCC1143; remark: listed apart in the source
# Summary of the method: as §3
# HCC1599 = test system: HCC1599
# Summary of the method: as §3
# HCC1937 [16] = test system: HCC1937
# Summary of the method: as §3
# HDQ-P1 [17] = test system: HDQ-P1; remark: listed apart in the source
# Summary of the method: as §3
# MDA-MB-231 [18] = test system: MDA-MB-231
# Summary of the method: as §3
# MDA-MB-453 [19] = test system: MDA-MB-453
# Summary of the method: as §3
# MFM-223 [20] = test system: MFM-223; remark: listed apart in the source
# Summary of the method: as §3
# SK-BR-3 [21] = test system: SK-BR-3; remark: listed apart in the source
# Summary of the method: as §3
# BT-474 [22] = test system: BT-474; remark: listed apart in the source
# Method: as §2
# CAL-51 [23] = test system: CAL-51; remark: listed apart in the source
# Method: as §2
# CAL-85-1 [24] = test system: CAL-85-1; remark: listed apart in the source
# Method: as §2
# HCC1143 [25] = test system: HCC1143; remark: listed apart in the source
# Method: as §2
# HCC1937 [26] = test system: HCC1937; remark: listed apart in the source
# Method: as §2
# MDA-MB-231 [27] = test system: MDA-MB-231; remark: listed apart in the source
# Method: as §2
# MDA-MB-453 [28] = test system: MDA-MB-453; remark: listed apart in the source
# Method: as §2
# MCF-10A = test system: MCF-10A
# Summary of the method: as §3
# MDA-MB-436 [29] = test system: MDA-MB-436; remark: listed apart in the source
# Method: as §2
# BT-549 [30] = test system: BT-549; remark: listed apart in the source
# Method: as §2
smiles,measurement,setting,value
C[C@@H](Oc1cc(-c2cnn(C3CCNCC3)c2)cnc1N)c1c(Cl)ccc(F)c1Cl [Crizotinib],"EC50, CellTiter-Blue viability",CAL-51 [1],3.14 µM
same,"EC50, CellTiter-Blue viability",CAL-85-1 [2],6.53 µM
same,"EC50, CellTiter-Blue viability",DU-4475 [3],4.94 µM
same,"EC50, CellTiter-Blue viability",HDQ-P1 [4],6.97 µM
same,"EC50, CellTiter-Blue viability",BT-474 [5],3.54 µM
same,"EC50, CellTiter-Blue viability",BT-549 [6],7.18 µM
same,"EC50, CellTiter-Blue viability",HCC1143 [7],8.17 µM
same,"EC50, CellTiter-Blue viability",Hs578T,7.69 µM
same,"EC50, CellTiter-Blue viability",MDA-MB-436 [8],0.275 µM
same,"EC50, CellTiter-Blue viability",MDA-MB-468,3.64 µM
same,"EC50, CellTiter-Blue viability",MFM-223 [9],3.72 µM
same,"EC50, CellTiter-Blue viability",SK-BR-3 [10],4.16 µM
same,"EC50, CellTox Green",HDQ-P1 [11],> 1 µM
O=C(CCCCCCC(=O)Nc1ccc([C@H]2O[C@@H](CSc3nc(-c4ccccc4)c(-c4ccccc4)o3)C[C@@H](c3ccc(CO)cc3)O2)cc1)NO [Tubacin],"EC50, CellTiter-Glo",BT-549 [12],7.35 µM
same,"EC50, CellTiter-Glo",CAL-120,1.61 µM
same,"EC50, CellTiter-Glo",CAL-148,2.9 µM
same,"EC50, CellTiter-Glo",CAL-85-1 [13],2.08 µM
same,"EC50, CellTiter-Glo",DU-4475 [14],1.48 µM
same,"EC50, CellTiter-Glo",HCC1143 [15],6.4 µM
same,"EC50, CellTiter-Glo",HCC1599,3.82 µM
same,"EC50, CellTiter-Glo",HCC1937 [16],4.67 µM
same,"EC50, CellTiter-Glo",HDQ-P1 [17],3.46 µM
same,"EC50, CellTiter-Glo",MDA-MB-231 [18],2.43 µM
same,"EC50, CellTiter-Glo",MDA-MB-453 [19],1.75 µM
same,"EC50, CellTiter-Glo",MFM-223 [20],3.59 µM
same,"EC50, CellTiter-Glo",SK-BR-3 [21],8.75 µM
same,"EC50, CellTox Green",BT-474 [22],1.88 µM
same,"EC50, CellTox Green",CAL-51 [23],2.07 µM
same,"EC50, CellTox Green",CAL-85-1 [24],3.16 µM
same,"EC50, CellTox Green",HCC1143 [25],6.85 µM
same,"EC50, CellTox Green",HCC1937 [26],0.124 µM
same,"EC50, CellTox Green",MDA-MB-231 [27],2.01 µM
same,"EC50, CellTox Green",MDA-MB-453 [28],8.37 µM
COc1cc2ncnc(Nc3ccc(F)c(Cl)c3)c2cc1NC(=O)/C=C/CN1CCCCC1 [Dacomitinib],"EC50, CellTiter-Glo",CAL-85-1 [13],0.0568 µM
same,"EC50, CellTiter-Glo",HDQ-P1 [17],0.00324 µM
same,"EC50, CellTiter-Glo",MCF-10A,0.00627 µM
same,"EC50, CellTiter-Glo",MDA-MB-453 [19],0.0748 µM
same,"EC50, CellTiter-Glo",SK-BR-3 [21],0.0263 µM
same,"EC50, CellTox Green",BT-474 [22],0.0824 µM
same,"EC50, CellTox Green",CAL-85-1 [24],0.564 µM
same,"EC50, CellTox Green",MDA-MB-436 [29],0.319 µM
O=P1(NCCCl)OCCCN1CCCl (stereo not drawn) [Ifosfamide],"EC50, CellTox Green",BT-549 [30],> 10 µM
same,"EC50, CellTox Green",MDA-MB-436 [29],> 10 µM
